Experimental data as given in article PMC7901650, “Garcinoic Acid Is a Natural and Selective Agonist of Pregnane X Receptor” (Journal of Medicinal Chemistry, 2020).

Columns and labels:
[1] = system: C57BL/6 wild-type male mice; test: Acute toxicity in mice after single oral bolus; conditions: 100 mg single bolus by oral gavage, 24 h after the treatment
RXR = test: AlphaScreen nuclear receptor panel, RXR; assay type: biochemical, human
Description: (§1) Ligand binding activity of GA (1) was explored via AlphaScreen technology over a panel of NRs that, along with hPXR (Figure 1A), included major human endocrine and metabolic receptors, such as the retinoid X receptor (RXR), constitutive androstane receptor (CAR), farnesoid X receptor (FXR), vitamin D receptor (VDR), liver X receptor (LXR) forms α and β, and the PPAR isoforms α, δ, and γ (see Figure S1). GA (1) was compared to its analogue δ-tocotrienol (5), the vitamers 3 and 4, their short-chain metabolites (SCMs) α-CEHC (10) and γ-CEHC (11), and the LCMs 2 and 8 (Chart 1). The test was performed in the presence of reference standard agonists for the different NRs.
(§2) The activity of nuclear receptors was determined using AlphaScreen technology, a recruitment coactivator assay previously described.[56]
(§3) (A) The test was carried out at 10 μM compound final concentration. Ligand binding to nuclear receptors was expressed as luminescence units. […] Vehicle was assessed to obtain a measure of background signal (basal evaluation). […] In presence of the ligand, the nuclear receptor LBD undergoes conformational changes, binds to the coactivator and the chemical energy is transferred from donor to acceptor beads in order to produce a signal, i.e. luminescence; in this case the compounds behaves as agonist, changing the conformation of the receptor to recruit the coactivator. […]

HT29 = test: PXR and CYP3A4 protein expression in HT29 cells; assay type: cell-based; conditions: HT29, 24 h, 1 to 25 μM
Experimental: HepG2 (human hepatoma cell line; ATCC HB-8065, Manassas, VA) and HepaRG (HPRGC10, Thermo Fisher Scientific) cells were maintained in culture as previously described.[47] Experiments were performed between passages 2 and 10. Cell viability, clonogenic activity, and apoptotic cell death were assessed as previously described (see Figure S2).[58],[59] HT29 human colorectal adenocarcinoma cells (ATCC HTB-38) and its mucous-secreting HT29-MTX subclone (Sigma-Aldrich) were used as intestinal cell models. HT29 cells were cultured in RPMI (Invitrogen; Life Technologies) containing 10% FBS (v/v) and 1% (v/v) L-glutamine. HT29-MTX cells (from Sigma-Aldrich) were cultured in DMEM supplemented with 2 mM glutamine, 1% nonessential amino acids, and 10% FBS. […]
Cells were harvested and lysed in ice-cold cell lysis buffer (Cell Signaling Technology) and 20 μL/mL protease inhibitor cocktail (Roche). […] After incubation in ice for 1 h and centrifugation (12 000 rpm for 20 min at 4 °C), the supernatant was recovered, and total proteins were quantified by the BCA assay kit (Pierce, Thermo Fisher Scientific). […] The band intensity was analyzed using Gel Pro analyzer Software. […]
PXR and CYP3A4 protein was assessed by immunoblot (20 µg total protein loading) in HT29 cells (from ATCC) were cultured in RPMI (Invitrogen; Life Technologies) containing 10% FBS ( v/v) and 1% ( v/v) L-glutamine. […]

CAR = target: T1, CAR (Homo sapiens, UniProt Q14994); test: AlphaScreen nuclear receptor panel, CAR; assay type: biochemical
T1 construct: GST-LBD
T1 sequence (Q14994 109-352 limits assumed): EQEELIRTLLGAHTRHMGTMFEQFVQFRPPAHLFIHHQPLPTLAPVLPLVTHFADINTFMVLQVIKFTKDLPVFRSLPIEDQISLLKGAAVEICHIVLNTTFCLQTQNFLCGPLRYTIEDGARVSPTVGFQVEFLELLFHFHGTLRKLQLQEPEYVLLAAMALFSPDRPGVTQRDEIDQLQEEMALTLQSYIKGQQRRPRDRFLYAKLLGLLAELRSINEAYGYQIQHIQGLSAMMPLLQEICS
Description: as §1, §2, §3

## C/C(=C\CC/C(C)=C/CC[C@]1(C)CCc2cc(O)cc(C)c2O1)CC/C=C(\C)C(=O)O [GA (1), (2E,6E,10E)-13-[(2R)-6-hydroxy-2,8-dimethyl-chroman-2-yl]-2,6,10-trimethyltrideca-2,6,10-trienoic acid]
[1]
  Mortality: 100%
RXR
  Response on RXR: No response
HT29
  PXR and CYP3A4 protein expression: increase
CAR
  Effect on CAR (constitutive activation): partially inhibited
